The IC50 is the concentration at which inhibition is half-maximal.

Bounds are passed on as bounds.

Test [1] addresses T1, CDK7/Cyclin H/MAT1 kinase (Homo sapiens (Human), UniProt P50613). The experiment in a line: Enzyme activity test, mobility shift assay (Table 3). The class given is biochemical. As to conditions: 2 mM ATP, pre-incubated 0 and 60 minutes. As for the experimental part: IC50 values of the compounds for CDK7 kinase were detected in Wuxi Biortus Biosciences Co. Ltd.
The compound powder was dissolved in 100% DMSO to prepare a 10 mM storage solution. The storage solution was further diluted to 0.5 mM as the initial concentration, and continuously diluted 3 times to obtain 10 compound solutions with different concentrations. The compound and enzyme were pre-incubated for 0 minutes and 60 minutes, respectively, using duplicate detection.
was used as a positive control, using Mobility shift say method, to detect CDK kinase (such as CDK7, CDK9, CDK12 and CDK2) activity of the compound.

The subject of test [2] is colorectal cancer cells HCT-116. Kind of test: Cell anti-proliferation experiment, MTT (Table 4). The class given is cell-based, human. The note with it: incubate 3 days. From the text:
(§1) Human breast cancer cells MDA-MB 231, MDA-MB453, ovarian cancer cells OVCAR3, colorectal cancer cells HCT-116 and lung cancer cells NCI-H209 were purchased from BNCC. DMEM medium (Bio-Channel), DMSO (dimethyl sulfoxide), MTT (thiazole blue), 0.25% EDTA-Tripsin (pancreatin digestive juice), 1×PBS (phosphate buffer, PH7.2), 96-well plate (Corning), fetal bovine serum (FBS), 10,000 U/mL penicillin-G/streptomycin, high-speed freezing centrifuge (EPPENDORF 5810R), enzyme-linked immunosorbent assay (Tecan Spark).
(§2) • A) Tumor cells were cultured to 80-90% density in DMEM (high sugar, containing 10% FBS and 100 U/mL penicillin-G/streptomycin) at 37° C., 5% CO2 and saturated humidity. • B) The culture medium was removed from the 10 cm culture dish. • C) Cells were washed with 10 ml 1×PBS. • D) 4 ml of 0.25% EDTA-Tripsin was added to an incubator to digest pancreatin for 5 minutes at 37° C. and 5% CO2, transferred to a 15 ml centrifuge tube, centrifuged for 5 minutes at 200 g, and supernatant was discarded to obtain cell precipitation. • E) The cell precipitation was resuspended with 4 ml DMEM medium, counted and adjusted to 50,000 cells/ml. • F) Cell suspension was added to a 96-well plate with a volume of 100 μL per well and cultured overnight in a 5% CO2 incubator at 37° C.
(§3) • A) Preparing the tested compound gradient dilution solution: TY 2600 1 mM, TY 2601 1 mM, TY-2648a 1 mM, TY-2648b 1 mM and TY-2650 1 mM storage solutions were prepared. Then 1.5 μl of storage solution was dissolved in 1.5 ml of DMSO-free culture solution, and then performed 3-fold continuous gradient dilution with 0.1% DMSO culture solution for a total of 9 concentrations. The concentrations of the diluted compound were as follows: • 333.33 nM, 111.11 nM, 37.03 nM, 12.35 nM, 4.15 nM, 1.37 nM, 0.46 nM, 0.15 nM • B) After full mixing, 100 μL of culture compound solution was taken to replace the culture solution in the cell culture plate, with 4 duplicated wells at each concentration; • C) The cells were transferred to incubator to incubate for 3 days.
(§4) • A) The cell culture plate was taken out and added with 5 mg/ml MTT 10 μL in the biosafety cabinet; • B) The cell culture plate was put back into the incubator and continued to incubate for 3 hours; • C) The cell culture plate was taken out to remove the culture solution, 100 μL isopropanol (containing 0.4 mM HCl, 0.1% NP-40) was added, shaking at room temperature for 30 minutes; • D) The absorbance value was measured at 570 nm on TECAN enzyme linked immunosorbent assay.

Test [3] deals with breast cancer cells MDA-MB453. The experiment in a line: Cell anti-proliferation experiment, MTT (Table 4). Type of test: cell-based, human. As to conditions: incubate 3 days.
Description: as §1, §2, §3, §4

The subject of test [4] is ovarian cancer cells OVCAR3. The experiment in a line: Cell anti-proliferation experiment, MTT (Table 4). Type of test: cell-based, human. As to conditions: incubate 3 days.
Description: as §1, §2, §3, §4

Test [5] deals with breast cancer cells MDA-MB 231. The experiment in a line: Cell anti-proliferation experiment, MTT (Table 4). Type of test: cell-based, human. The note with it: incubate 3 days.
Description: as §1, §2, §3, §4

For test [6], the system named is colorectal cancer cells HCT-116. The experiment in a line: Cell anti-proliferation experiment, MTT (Table 2). Type of test: cell-based. As to conditions: Homo sapiens, HCT-116, 72 h, incubate 3 days.
Description: (§5) Human breast cancer cells MDA-MB 231, MDA-MB453, ovarian cancer cells OVCAR3 and A2780, colorectal cancer cells HCT-116 and WiDr, and lung cancer cell Calu-6 were purchased from BNCC. DMEM medium (Bio-Channel), DMSO (dimethyl sulfoxide), MTT (thiazole blue), 0.25% EDTA-Tripsin (pancreatin digestive juice), 1×PBS (phosphate buffer, PH7.2), 96-well plate (Corning), fetal bovine serum (FBS), 10,000 U/mL penicillin-G/streptomycin, high-speed freezing centrifuge (EPPENDORF 5810R), enzyme-linked immunosorbent assay (Tecan Spark).
as §2, with “1. Cell Plating • A)” for “• A)”
(§6) Compound Dilution • A) Preparing the tested compound gradient dilution solution: the tested compounds were prepared into 10 mM and 1 mM storage solution respectively. Firstly, 1 μl and 0.5 μl of 10 mM storage solution were dissolved in 1 ml of DMSO-free culture solution, respectively, to obtain diluted compounds with concentrations of 10 and 5 μM. Then, 1.5 μl of 1 mM storage solution was dissolved in 1.5 ml of DMSO-free culture solution to obtain a dilution compound with a concentration of 1 μM, and then diluted with a 3-fold continuous gradient with […] culture solution for a total of 7 concentrations. The concentrations of all 10 diluted compounds mentioned above were as follows: • 10 μM, 5 μM, 1 μM, 333.33 nM, 111.11 nM, 37.03 nM, 12.35 nM, 4.15 nM, 1.37 nM, 0.46 nM • B) After full mixing, 100 μL of culture compound solution was taken to replace the culture solution in the cell culture plate, with 4 duplicated wells at each concentration; • C) The cells were transferred to incubator to incubate for 3 days.
(§7) 3. MTT Detection • A) The cell culture plate was taken out and added with 5 mg/ml MTT 10 μL in the biosafety cabinet; • B) The cell culture plate was put back into the incubator and continued to incubate for 3 hours; • C) The cell culture plate was taken out to remove the culture solution, 100 μL isopropanol (containing 0.4 mM HCl, 0.1% NP-40) was added, shaking at room temperature for 30 minutes; • D) The absorbance value was measured at 570 nm on TECAN enzyme linked immunosorbent assay.

Test [7] concerns breast cancer cells MDA-MB453. Kind of test: Cell anti-proliferation experiment, MTT (Table 2). Type of test: cell-based. As to conditions: Homo sapiens, MDA-MB-453, 72 h, incubate 3 days.
Description: as §5
as §2, with “1. Cell Plating • A)” for “• A)”
as §6, §7

The subject of test [8] is ovarian cancer cells OVCAR3. The experiment in a line: Cell anti-proliferation experiment, MTT (Table 2). The class given is cell-based. The note with it: Homo sapiens, OVCAR-3, 72 h, incubate 3 days.
Description: as §5
as §2, with “1. Cell Plating • A)” for “• A)”
as §6, §7

Another test relates to lung cancer cell Calu-6. Kind of test: Cell anti-proliferation experiment, MTT (Table 2). Type of test: cell-based. As to conditions: Homo sapiens, Calu-6, 72 h, incubate 3 days.
Description: as §5
as §2, with “1. Cell Plating • A)” for “• A)”
as §6, §7

For test [9], the system named is breast cancer cells MDA-MB 231. Kind of test: Cell anti-proliferation experiment, MTT (Table 2). Type of test: cell-based. As to conditions: Homo sapiens, MDA-MB-231, 72 h, incubate 3 days.
Description: as §5
as §2, with “1. Cell Plating • A)” for “• A)”
as §6, §7

A further test has as its target CDK2/Cyclin El (Homo sapiens (Human), UniProt P24941). Kind of test: Enzyme activity test, mobility shift assay (Table 1). Type of test: biochemical. The note with it: 2 mM ATP; read-out: CDK2 kinase IC50. The essentials:
(§8)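 Human CDK9/Cyclin T1 and CDK2/Cyclin E1 activity measured by mobility shift assay. Compounds tested as 10-point, 3-fold dilution series starting at 0.5 mM (diluted from 10 mM DMSO stock), in duplicate, with 0 min or 60 min compound–enzyme pre-incubation.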

A further test has as its target CDK9/Cyclin Tl (Homo sapiens (Human), UniProt P50750). The test is described as above. As to conditions: 2 mM ATP; read-out: CDK9 kinase IC50. Type of test: biochemical. In short, it runs like this:
as §8

Test [10] has as its target CDK12 (aa686-1082)/Cyclin K (Homo sapiens (Human), UniProt Q9NYV4). The test is described as above. Type of test: biochemical. The note with it: 2 mM ATP; read-out: CDK12 kinase IC50. In short, it runs like this:
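Mobility shift kinase assay on CDK9/Cyclin T1 and CDK12 (aa686-1082)/Cyclin K. Ten-point 3-fold dilution series started from a 0.5 mM intermediate solution in DMSO, with compound–enzyme pre-incubation of 0 or 60 min, in duplicate. Staurosporine served as positive control.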

Test [11] has as its system ovarian cancer cells A2780. Kind of test: Cell anti-proliferation experiment, MTT (Table 2). Type of test: cell-based, human. The note with it: Homo sapiens, A2780, 72 h, incubate 3 days.
Description: as §5
as §2, with “1. Cell Plating • A)” for “• A)”
as §6, §7

In test [12] the test system is colorectal cancer cells WiDr. The experiment in a line: Cell anti-proliferation experiment, MTT (Table 2). Type of test: cell-based, human. The note with it: Homo sapiens, WiDr, 72 h, incubate 3 days.
Description: as §5
as §2, with “1. Cell Plating • A)” for “• A)”
as §6, §7

In test [13] the target is T1, CDK7/Cyclin H/MAT1 kinase. Kind of test: Enzyme activity test, mobility shift assay (Table 1). Type of test: biochemical. The note with it: 2 mM ATP; pre-incubated 0 and 60 minutes.

T1 sequence (P50613 whole entry): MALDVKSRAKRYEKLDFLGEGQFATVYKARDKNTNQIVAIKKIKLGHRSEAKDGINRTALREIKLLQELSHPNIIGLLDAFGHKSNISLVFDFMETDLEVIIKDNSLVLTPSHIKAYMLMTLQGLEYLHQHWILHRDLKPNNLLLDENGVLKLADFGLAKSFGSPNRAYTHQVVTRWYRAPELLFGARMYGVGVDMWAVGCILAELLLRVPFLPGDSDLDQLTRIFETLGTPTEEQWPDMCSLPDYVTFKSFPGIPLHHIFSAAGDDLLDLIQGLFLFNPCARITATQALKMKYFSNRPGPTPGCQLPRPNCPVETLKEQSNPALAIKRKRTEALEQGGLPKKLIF
T1 sequence (P51946 whole entry partner): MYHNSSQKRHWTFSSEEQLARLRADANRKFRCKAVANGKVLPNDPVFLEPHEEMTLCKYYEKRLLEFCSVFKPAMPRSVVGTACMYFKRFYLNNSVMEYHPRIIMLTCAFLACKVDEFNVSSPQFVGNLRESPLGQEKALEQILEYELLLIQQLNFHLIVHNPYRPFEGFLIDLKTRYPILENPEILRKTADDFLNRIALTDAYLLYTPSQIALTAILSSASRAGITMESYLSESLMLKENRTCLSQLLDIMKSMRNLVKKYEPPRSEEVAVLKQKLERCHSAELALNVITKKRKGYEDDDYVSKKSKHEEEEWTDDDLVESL
T1 sequence (P51948 whole entry partner): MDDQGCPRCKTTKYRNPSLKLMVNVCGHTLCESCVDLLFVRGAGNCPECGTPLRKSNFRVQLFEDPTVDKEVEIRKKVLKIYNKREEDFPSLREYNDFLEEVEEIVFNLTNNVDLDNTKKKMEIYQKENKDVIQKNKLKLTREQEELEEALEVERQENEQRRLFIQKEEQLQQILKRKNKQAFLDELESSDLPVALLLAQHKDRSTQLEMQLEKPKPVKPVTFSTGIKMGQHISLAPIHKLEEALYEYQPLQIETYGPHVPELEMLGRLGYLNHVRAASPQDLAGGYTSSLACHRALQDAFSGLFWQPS
CDK9/Cyclin Tl, sequence (P50750 whole entry): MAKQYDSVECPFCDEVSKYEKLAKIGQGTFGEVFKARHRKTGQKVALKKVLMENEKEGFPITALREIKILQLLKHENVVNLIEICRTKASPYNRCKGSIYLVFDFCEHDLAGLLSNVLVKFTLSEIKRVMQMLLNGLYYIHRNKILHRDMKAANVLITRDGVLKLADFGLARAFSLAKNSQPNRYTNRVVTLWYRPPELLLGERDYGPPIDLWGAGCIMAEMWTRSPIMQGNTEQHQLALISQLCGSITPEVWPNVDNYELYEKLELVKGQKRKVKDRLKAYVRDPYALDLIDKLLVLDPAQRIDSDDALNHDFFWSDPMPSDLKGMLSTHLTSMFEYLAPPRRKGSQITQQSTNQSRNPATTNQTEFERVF
CDK9/Cyclin Tl, sequence (O60563 whole entry partner): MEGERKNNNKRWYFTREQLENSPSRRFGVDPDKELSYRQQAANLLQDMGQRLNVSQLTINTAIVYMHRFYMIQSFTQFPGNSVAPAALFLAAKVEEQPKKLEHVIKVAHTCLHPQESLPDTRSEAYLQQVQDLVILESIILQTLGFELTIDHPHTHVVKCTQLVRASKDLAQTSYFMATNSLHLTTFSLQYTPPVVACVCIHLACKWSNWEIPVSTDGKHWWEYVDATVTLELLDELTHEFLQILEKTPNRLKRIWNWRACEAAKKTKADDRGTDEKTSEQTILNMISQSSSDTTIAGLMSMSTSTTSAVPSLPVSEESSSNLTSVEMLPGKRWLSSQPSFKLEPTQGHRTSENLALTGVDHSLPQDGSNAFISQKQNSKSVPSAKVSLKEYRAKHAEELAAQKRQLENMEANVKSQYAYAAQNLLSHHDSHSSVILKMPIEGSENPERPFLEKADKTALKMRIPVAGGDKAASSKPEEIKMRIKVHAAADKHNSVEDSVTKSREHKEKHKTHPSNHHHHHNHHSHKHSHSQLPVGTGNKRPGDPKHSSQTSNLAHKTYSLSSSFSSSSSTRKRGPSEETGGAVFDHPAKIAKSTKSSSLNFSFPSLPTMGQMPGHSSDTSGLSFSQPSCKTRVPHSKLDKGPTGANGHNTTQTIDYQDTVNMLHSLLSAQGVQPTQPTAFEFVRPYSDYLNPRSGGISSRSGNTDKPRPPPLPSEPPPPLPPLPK
CDK12 (aa686-1082)/Cyclin K, sequence (Q9NYV4 686-1082): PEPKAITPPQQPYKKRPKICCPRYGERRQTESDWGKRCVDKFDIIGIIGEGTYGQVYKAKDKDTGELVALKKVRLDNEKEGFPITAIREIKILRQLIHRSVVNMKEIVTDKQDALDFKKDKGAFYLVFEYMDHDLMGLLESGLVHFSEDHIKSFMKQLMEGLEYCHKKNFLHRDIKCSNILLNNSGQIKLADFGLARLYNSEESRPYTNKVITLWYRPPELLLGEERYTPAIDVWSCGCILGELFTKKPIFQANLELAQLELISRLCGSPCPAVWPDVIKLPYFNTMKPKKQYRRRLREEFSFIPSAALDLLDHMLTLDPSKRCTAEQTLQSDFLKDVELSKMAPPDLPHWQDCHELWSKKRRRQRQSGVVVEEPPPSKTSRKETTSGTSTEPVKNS
CDK12 (aa686-1082)/Cyclin K, sequence (O75909 whole entry partner, the tested form may be a part): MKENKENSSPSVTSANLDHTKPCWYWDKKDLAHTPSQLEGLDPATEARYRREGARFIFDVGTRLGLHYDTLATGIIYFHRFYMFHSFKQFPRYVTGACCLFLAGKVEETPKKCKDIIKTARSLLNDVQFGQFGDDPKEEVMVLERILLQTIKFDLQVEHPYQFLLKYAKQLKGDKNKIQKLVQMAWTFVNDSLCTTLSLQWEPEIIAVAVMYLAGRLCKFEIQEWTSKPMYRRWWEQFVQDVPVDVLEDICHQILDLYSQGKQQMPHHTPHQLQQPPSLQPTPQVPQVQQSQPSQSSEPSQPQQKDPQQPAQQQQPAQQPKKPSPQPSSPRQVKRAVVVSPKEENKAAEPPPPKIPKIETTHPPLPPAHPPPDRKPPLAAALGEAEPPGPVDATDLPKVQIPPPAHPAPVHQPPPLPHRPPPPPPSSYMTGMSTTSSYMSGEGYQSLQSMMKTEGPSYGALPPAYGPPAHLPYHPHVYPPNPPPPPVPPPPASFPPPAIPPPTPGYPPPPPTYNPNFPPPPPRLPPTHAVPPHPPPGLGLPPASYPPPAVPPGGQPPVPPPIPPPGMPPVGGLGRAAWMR

In the case of `CC1(C)CC[C@H](Nc2ncc(C(F)(F)F)c(-c3c[nH]c4c(P5(=O)CCCC5)c(C#N)ccc34)n2)CN1` [Example 01], the IC50 is less than 10 nM in test [1]; 10 to 500 nM in test [2] (Homo sapiens, HCT-116, 72 h); 10 to 500 nM in test [3] (Homo sapiens, MDA-MB-453, 72 h); 10 to 500 nM in test [4] (Homo sapiens, OVCAR-3, 72 h); 10 to 500 nM in test [5] (Homo sapiens, MDA-MB-231, 72 h).

For the molecule `CC1(C)CC[C@H](Nc2ncc(C(F)(F)F)c(-c3c[nH]c4c(P5(=O)CCCC5)nccc34)n2)CN1` [Example 14], the IC50 in test [1] was less than 10 nM; in [2] (Homo sapiens, HCT-116, 72 h) it was 10 to 500 nM; in test [3] (Homo sapiens, MDA-MB-453, 72 h) it was 10 to 500 nM; in [4] (Homo sapiens, OVCAR-3, 72 h) it was 10 to 500 nM; in test [5] (Homo sapiens, MDA-MB-231, 72 h) it was 10 to 500 nM.

As for `COC(=O)Nc1ccc2c(-c3nc(N[C@H]4CCC(C)(C)NC4)ncc3C(F)(F)F)c[nH]c2c1P1(=O)CCCC1` [Example 20], the IC50 in test [1] is less than 10 nM; in test [2] (Homo sapiens, HCT-116, 72 h), 10 to 500 nM; in test [3] (Homo sapiens, MDA-MB-453, 72 h), 10 to 500 nM; in test [4] (Homo sapiens, OVCAR-3, 72 h), 10 to 500 nM; in test [5] (Homo sapiens, MDA-MB-231, 72 h) it was 10 to 500 nM.

Consider `CC1(C)CC[C@H](Nc2ncc(C(F)(F)F)c(-n3cnc4c(P(C)(C)=O)c(C#N)ccc43)n2)CN1` [Example 31], for which the IC50 is less than 10 nM in [1]; 10 to 500 nM in [2]; 10 to 500 nM in [3]; 10 to 500 nM in [4]; 10 to 500 nM in test [5].

Consider `CP(C)(=O)c1c(C#N)ccc2c(-c3nc(N[C@H]4CCC(=O)NC4)ncc3C(F)(F)F)c[nH]c12` [Example 48], for which the IC50 was less than 10 nM in test [1]; 10 to 500 nM in test [2] (Homo sapiens, HCT-116, 72 h); 10 to 500 nM in test [3] (Homo sapiens, MDA-MB-453, 72 h); 10 to 500 nM in test [4] (Homo sapiens, OVCAR-3, 72 h); 10 to 500 nM in test [5] (Homo sapiens, MDA-MB-231, 72 h).

Turning to `COC(=O)Nc1ccc2c(-c3nc(N[C@H]4CCCNC4)ncc3C(F)(F)F)c[nH]c2c1Cl` [Example T-79], the half-maximal inhibitory concentration (IC50) is 35.3 nM in test [6]; 53.1 nM in [7]; 69.8 nM in test [8]; 114 nM with lung cancer cell Calu-6; 144 nM in [9]; more than 500 nM on CDK2/Cyclin El. Also, the IC50 was more than 500 nM on CDK9/Cyclin Tl; more than 500 nM in test [10]; 14.2 nM in test [11]; 16.3 nM in test [12]; less than 50 nM in test [13].

(Values after patent US20230295130A1, “COMPOUND USEFUL AS CDK7 KINASE INHIBITOR AND USE THEREOF” (TYK MEDICINES, INC., priority 2020, published 2023).)
